Literature values in patent US11504411B1, “Herbal dietary supplement supporting healthy immune function” (Progressing Bodies, Inc., priority 2021, dated 2022).

Key:
[1] = system: herpes simplex virus; conditions: within just one hour
[2] = system: norovirus; conditions: over the course of less than one hour

Structure (SMILES) | singlet oxygen quenching strength relative to CoQ10 (versus CoQ10) [times] | singlet oxygen quenching strength relative to green tea catechins (versus green tea catechins) [times] | singlet oxygen quenching strength relative to vitamin C (versus vitamin C) | herpes simplex virus inactivated [1] [%] | inactivation of norovirus [2]
CC1=C(/C=C/C(C)=C/C=C/C(C)=C/C=C/C=C(C)/C=C/C=C(C)/C=C/C2=C(C)C(=O)[C@@H](O)CC2(C)C)C(C)(C)C[C@H](O)C1=O [astaxanthin] | 800 | 550 | 6,000 times | – | –
Cc1ccc(C(C)C)c(O)c1 [thymol] | – | – | – | 90 | –
Cc1ccc(C(C)C)cc1O [carvacrol] | – | – | – | 90 | inactivated norovirus
